Results reported in US9750817B2, “Amphotericin B derivatives” (priority 2015, dated 2017).
Values after ≈ are worked out from the molar mass of the structure shown. Read-outs that look alike come from different tables or passages of the source. Each block holds one compound with its values, some of them ahead of it.

Legend:
Aspergillus fumigatus = experiment: MIC/MFC broth dilution (CLSI), clinical isolates; type: cell-based; settings: A. fumigatus
Description: (§1) Isolates of Aspergillus fumigatus, Aspergillus flavus, Aspergillus terreus Aspergillus niger, Rhizopus oryzae, Candida albicans and Candida krusei were isolated from patients in Israeli hospitals and used for in vitro efficacy studies.
(§2) Efficacy was evaluated by measuring minimum inhibitory concentration (MIC) and minimum fungicidal concentration (MFC) values for fungal isolates. Testing of isolates was performed according to the Clinical & Laboratory Standards Institute (CLSI) method. (CLSI. 2008. M27-A3 Reference method for broth dilution antifungal susceptibility testing of yeasts; Approved Standard—3rd edition. Clinical and Laboratory Standards Institute, Wayne). RPMI MOPS media was used throughout the experiment as growth and dilution media. Spores and yeast cells were harvested in 0.05% Tween from 24-48 h and cultures were grown in rich yeast extract-agar-glucose (YAG) medium (composed of: 0.5% w/v yeast extract, 1% w/v glucose, 10 millimolar (mM) MgCl2, supplemented with 0.1% v/v trace elements solution, and 0.2% v/v vitamin mix). The spores and the yeast cells were counted and diluted to a final concentration of 2.5×10^4 per ml. A stock solution of 5 mg/ml was prepared in dimethylsulfoxide for free AMB. Compounds 4 and 6 were prepared in sterile saline. Double dilutions of each drug were performed in 100 μL volume of RPMI-MOPS in 96 well plates beginning with a final concentration of 32 micrograms (μg)/well of each drug to 0.06 μg/well. 2500 spores or yeast cells were added to each well. Results were recorded 48 h post incubation at 37° C. […] The MFC was defined as the lowest drug concentration that yielded three or fewer colonies (i.e. 99% of the inoculum was killed).

[1] = Solubility in double-distilled water; type: physicochemical
Description: Physical characteristics of AMB derivatives and of AMB were tested, including solubility.

[2] = Stability (hydrolysis) in phosphate buffered saline; type: physicochemical
human erythrocytes = experiment: In-vitro toxicity (hemolysis) study; type: cell-based; settings: 6 μg/ml
Description: Reference is made to FIG. 4B. Fresh human erythrocytes were diluted 1:100 in PBS, and incubated in an Eppendorf tube while rotating slowly in the presence of 6 μg/ml of each of compound 4 and compound 6. Amphotericin B was used as positive control. Sterile double distilled water served as a control for 100% hemolysis. After 1, 3, 5 and 21 h, 20 μl of each test tube were removed and diluted in 180 μl PBS. Samples were centrifuged for 10 minutes at 1200 RPM and the optical density of the supernatant was measured at 425 nm.

[3] = tested on: mouse embryonic fibroblasts (MEFs); experiment: MTT viability assay in mouse embryonic fibroblasts; type: cell-based
Description: Reference is made to FIG. 4C. Mouse embryonic fibroblasts were used in this example. 1×10^4 mouse embryonic fibroblasts (MEFs) per well were seeded in 96-well plates and incubated at 37° C. After 24 h the media was replaced with 100 μl culture medium containing serial dilutions of AMB, compounds 4 or 6, or left untreated. After 24 h, the media was replaced by fresh media (100 μl per well) containing 1 mg/ml MTT (3-(4,5-Dimethylthiazol-2-yl)-2,5-Diphenyltetrazolium Bromide, ((Biological Industries, Israel)) reagent and the cells were incubated for an additional 3 h at 37° C. MTT-formazan crystals were dissolved by the addition of 100 μl per well of extraction solution (20% SDS, 50% N,N-dimethyl formamide (DMF), pH=4.7) and incubation for 16 h at 37° C. Absorbance at 570 nm was recorded on a Biotek Synergy HT plate reader.
The results were expressed as the percentage of living cells relative to the untreated control and are depicted in FIG. 4C. The inhibition concentration (IC50) value is the concentration of the compound which inhibited cell growth by 50%.

[4] = Solubility in 0.9% saline after vortex, sonication and centrifuge; type: physicochemical
Candida krusei = experiment: MIC/MFC broth dilution (CLSI), clinical isolates; type: cell-based; settings: C. krusei, 3 isolates, 48 h at 37° C.
Description: as §1, §2

Rhizopus oryzae = experiment: MIC/MFC broth dilution (CLSI), clinical isolates; type: cell-based; settings: 1 isolate, 48 h at 37° C.
Description: as §1, §2

Aspergillus terreus = experiment: MIC/MFC broth dilution (CLSI), clinical isolates; type: cell-based; settings: listed as printed C. terreus, 1 isolate, 48 h at 37° C.
Description: as §1, §2

Aspergillus niger = experiment: MIC/MFC broth dilution (CLSI), clinical isolates; type: cell-based; settings: A. niger, 3 isolates, 48 h at 37° C.
Description: as §1, §2

Aspergillus flavus = experiment: MIC/MFC broth dilution (CLSI), clinical isolates; type: cell-based; settings: A. Flavus, 3 isolates, 48 h at 37° C.
Description: as §1, §2

Candida albicans = experiment: MIC/MFC broth dilution (CLSI), clinical isolates; type: cell-based; settings: C. albicans, 2 isolates, 48 h at 37° C.
Description: as §1, §2

ICR mice = experiment: In vivo toxicity, intravenous injection; settings: female ICR mice, intravenous
Description: In-vivo toxicity was determined in mice using 6 week old female ICR mice (n=6). Different concentrations of each formulation were injected intravenously through the tail vein, 0.2 ml per mouse, until death was observed. PAD-AMB conjugates were prepared in sterile saline solution and were filtered through 0.45-micrometer pore-size cellulose acetate sterile filters prior to injection.

A. fumigatus (Af 293) = experiment: MIC of compound 6, AMB and FMOC-6; type: cell-based, Aspergillus fumigatus
Description: as §2
(§3) In addition, the amine protected equivalent of compound 6 in which the amine of compound 6 was protected with an FMOC group was tested (designated FMOC-6) to determine MIC versus AMB and versus compound 6 against A. fumigatus (Af 293) and C. albicans (CBS562).

C. albicans (CBS562) = experiment: MIC of compound 6, AMB and FMOC-6; type: cell-based, Candida albicans
Description: as §2, §3

SMILES: CC1C=CC=CC=CC=CC=CC=CC=CC(OC2OC(C)C(O)C(NC(=O)CCOCCOCCOCCOCCN)C2O)CC2OC(O)(CC(O)CC(O)C(O)CCC(O)CC(O)CC(=O)OC(C)C(C)C1O)CC(O)C2C(=O)O (centres unmarked) [AMB-PEG4-amine]
MIC (Aspergillus fumigatus; strain not stated): 2 to 3 µg/mL
Solubility ([1]; double-distilled water): 300 µg/mL (≈ 256 µM)

SMILES: COC(=O)[C@H]1[C@@H]2C[C@@H](O[C@@H]3O[C@H](C)[C@@H](O)[C@H](N)[C@@H]3O)/C=C/C=C/C=C/C=C/C=C/C=C/C=C/[C@H](C)[C@@H](O)[C@@H](C)[C@H](C)OC(=O)C[C@H](O)C[C@H](O)CC[C@@H](O)[C@H](O)C[C@H](O)C[C@](O)(C[C@@H]1O)O2 [Amphotericin B methyl ester, reference compound]
Solubility [1]: <1 µg/mL

SMILES: C[C@@H]1[C@H](O)[C@@H](C)/C=C/C=C/C=C/C=C/C=C/C=C/C=C/[C@H](O[C@@H]2O[C@H](C)[C@@H](O)[C@H](NC(=O)CCOCCOCCOCCOCCOCCOCCOCCOCCN)[C@@H]2O)C[C@@H]2O[C@](O)(C[C@@H](O)C[C@@H](O)[C@H](O)CC[C@@H](O)C[C@@H](O)CC(=O)O[C@H]1C)C[C@H](O)[C@H]2C(=O)O [Compound 4, amphotericin B amide-PEG(8)-amine]
hydrolysis after 4 hours ([2]; 4 hours): no hydrolysis could be observed
level of hydrolysis after 24 hours ([2]; 24 hours): 0.51%
hemolytic activity (human erythrocytes; after 3 h of agitation): small hemolytic activity
toxicity to erythrocytes (human erythrocytes; assay conditions of FIG. 4B): less toxic (about four times less)
IC50 (concentration which inhibited cell growth by 50%) ([3]; 24 h exposure, MTT): 280 µg/mL
times less toxic than AMB ([3]; from IC50): 40 times
increased solubility relative to corresponding non-PEG-conjugated AMB compounds [4]: greater than 5500 fold
MFC (Candida krusei): 8 µg/mL (≈ 5.94 µM)
MIC (Candida krusei): 4 to 8 µg/mL
MFC (Rhizopus oryzae): 8 µg/mL (≈ 5.94 µM)
MIC (Rhizopus oryzae): 8 µg/mL (≈ 5.94 µM)
MFC (Aspergillus terreus): 32 µg/mL (≈ 23.7 µM)
MIC (Aspergillus terreus): 32 µg/mL (≈ 23.7 µM)
MFC (Aspergillus fumigatus; 4 isolates, 48 h at 37° C.): 4 to 16 µg/mL
MIC (Aspergillus fumigatus; 4 isolates, 48 h at 37° C.): 4 to 16 µg/mL
MFC (Aspergillus niger): 1 to 4 µg/mL
MIC (Aspergillus niger): 1 to 4 µg/mL
MFC (Aspergillus flavus): 4 to 8 µg/mL
MIC (Aspergillus flavus): 4 to 8 µg/mL
MFC (Candida albicans): 4 µg/mL (≈ 2.97 µM)
MIC (Candida albicans): 1 to 2 µg/mL
mouse LD50 fold higher than AMB (ICR mice): at least 20 fold
signs of toxicity at the highest injectable doses (ICR mice): did not show any signs of toxicity
LD50 (ICR mice; tail vein): not reached
Maximum Dose (ICR mice; tail vein): 22 mg/kg
Solubility ([1]; double-distilled water): 5500 µg/mL (≈ 4080 µM)

Continued, in another order:

Solubility [1]: Insoluble
SMILES: COC(=O)C1C(O)CC2(O)CC(O)CC(O)C(O)CCC(O)CC(O)CC(=O)OC(C)C(C)C(O)C(C)C=CC=CC=CC=CC=CC=CC=CC(OC3OC(C)C(O)C(NC(=O)CCOCCOCCOCCOCCN)C3O)CC1O2 (centres unmarked) [AME-PEG4-amine]

MIC (C. albicans (CBS562)): >32 µg/mL
SMILES: COC(=O)C1C(O)CC2(O)CC(O)CC(O)C(O)CCC(O)CC(O)CC(=O)OC(C)C(C)C(O)C(C)C=CC=CC=CC=CC=CC=CC=CC(OC3OC(C)C(O)C(NC(=O)CCOCCOCCOCCOCCOCCOCCOCCOCCNC(=O)OCC4c5ccccc5-c5ccccc54)C3O)CC1O2 (centres unmarked) [FMOC-6]
MIC (A. fumigatus (Af 293)): >32 µg/mL
